Experimental data reported in article PMC7561186, “Rational design of balanced dual-targeting antibiotics with limited resistance” (PLoS Biology, 2020).
“And” between values parts separate entries of the source, which are not always exact repeats. Identical values can stand only once. Like-named read-outs stand apart in the source and are kept apart here.

Legend:
[1] = system: Neisseria gonorrhoeae; assay: MIC, broth microdilution (CLSI); format: cell-based
Description: (§1) MICs were determined using a standard serial broth microdilution technique according to the CLSI guidelines. Briefly, bacterial strains were inoculated onto MHBII agar plates and were grown overnight at 37 °C. Next, 3 individual colonies from each strain were inoculated into 1 mL MHBII medium and propagated at 37 °C, 250 rpm overnight. In the cases of Enterococcus and Streptococcus sp., cells were plated to BHI agar plates, and BHI broth was used to determine MICs. […] Following dilutions, each well was seeded with 5×10^4 bacterial cells. All measurements were performed in 3 parallel replicates and to avoid possible edge effects in microwell plates, side rows (A and H) were filled with sterile medium. Following inoculations, plates were covered with lids and wrapped in polyethylene plastic bags to minimize evaporation but allow for O2 transfer. Plates were incubated at 37 °C under continuous shaking at 150 rpm for 18 hours. After incubation, OD600 of each well was measured using a BioTek Synergy 2 microplate reader.

[2] = system: Acinetobacter baumannii; assay: MIC, broth microdilution (CLSI); format: cell-based
Description: as §1

[3] = system: Enterococcus faecalis; assay: MIC, broth microdilution (CLSI); format: cell-based
Description: as §1

[4] = system: Helicobacter pylori; assay: MIC, broth microdilution (CLSI); format: cell-based; conditions: Helicobacter pylori ATCC 43504
Description: as §1

[5] = system: Pseudomonas aeruginosa; assay: MIC, broth microdilution (CLSI); format: cell-based
Description: as §1

[6] = system: Escherichia coli; assay: MIC, broth microdilution (CLSI); format: cell-based; conditions: Escherichia coli ATCC 25922
Description: as §1

[7] = system: Streptococcus pneumoniae; assay: MIC, broth microdilution (CLSI); format: cell-based
Description: as §1

[8] = system: Clostridium difficile; assay: MIC, broth microdilution (CLSI); format: cell-based
Description: as §1

[9] = system: Haemophilus influenzae; assay: MIC, broth microdilution (CLSI); format: cell-based
Description: as §1

[10] = system: Enterococcus faecium; assay: MIC, broth microdilution (CLSI); format: cell-based
Description: as §1

[11] = system: Klebsiella pneumoniae; assay: MIC, broth microdilution (CLSI); format: cell-based; conditions: Klebsiella pneumoniae ATCC 10031
Description: as §1

[12] = system: Staphylococcus aureus; assay: MIC, broth microdilution (CLSI); format: cell-based
Description: as §1

[13] = system: Streptococcus pyogenes; assay: MIC, broth microdilution (CLSI); format: cell-based
Description: as §1

[14] = system: Shigella flexneri; assay: MIC, broth microdilution (CLSI); format: cell-based
Description: as §1

[15] = system: Listeria monocytogenes; assay: MIC, broth microdilution (CLSI); format: cell-based; conditions: Listeria monocytogenes ATCC 19111
Description: as §1

[16] = system: S. aureus ATCC 700699 and S. aureus ATCC 43300; assay: Spontaneous frequency-of-resistance assay; format: cell-based
Description: Prior to plating, bacteria were grown overnight in MHBII medium at 37 °C, 250 rpm, collected by centrifugation, and washed once in equal volumes of MHBII broth. From this concentrated cell suspension (250 μL), approximately 10^10 cells were then plated to each MHBII agarose plates. […] All experiments were performed in at least 3 replicates. Plates were grown at 37 °C for 72 hours. Total CFUs were determined simultaneously in each experiment by plating appropriate dilutions to antibiotic-free MHBII agar plates. Finally, resistance frequencies for each strain were calculated by dividing the number of colonies formed after a 72-hour incubation at 37 °C by the initial viable cell count.

[17] = system: novobiocin-resistant S. aureus VISA ATCC 700699 mutants; assay: MIC against novobiocin-resistant (novobiocin-adapted) strains; format: cell-based; conditions: for MIC: Staphylococcus aureus
Description: as §1

[18] = system: human red blood cells; assay: Haemolysis analysis
Description: Next, 600 μl of this EDTA-treated blood was washed in TBS buffer (10 mM TRIS, 150 mM NaCl [pH 7.2]) and centrifuged at 1,500 g for 1 minute until the supernatant became colorless. The aliquot of the final pellet (200 μL) was diluted to 5 mL with TBS buffer. […] Next, 100 μL of red blood cell suspension was pipetted into sterile Eppendorf tubes together with 100 μL of 2-fold serial dilution of the compounds (final concentration ranged between 100 μg/mL–0.1 μg/mL in a final volume of 200 μL). The plate was incubated for one hour at 37 °C followed by centrifugation at 1,500 g for 1 minute to sediment all red blood cells. Next, all supernatants were subjected to LDH and Haemolysis-Icterus-Lipaemia (HIL) index determination on a Roche Modular P800 analyzer according to the manufacturer’s instructions. After completion of this step the rest of the supernatants were transferred to sterile 96-well plates for the measurement of their optical density at 560-nm wavelength (in a Multiskan FC microplate reader, Thermo Scientific). Melittin (Bachem) at a concentration of 50 μg/mL, and TBS and 10% DMSO/TBS were served as positive (100% hemolysis) and negative (no hemolysis) controls, respectively.

[19] = system: multidrug-resistant Staphylococcus, Enterococcus, and Streptococcus isolates; assay: MIC against multidrug-resistant gram-positive isolates (summary); format: cell-based; conditions: read-out: MIC values against all studied multidrug-resistant Staphylococcus, Enterococcus, and Streptococcus isolates
Description: as §1

[20] = in vitro; conditions: human
Description: (§2) Cytotoxicity of compounds on HepG2 and MCF-7 mammalian cell lines was determined by using a standard LDH assay. Briefly, HepG2 and MCF-7 cells were cultured in Eagle’s MEM medium (from Gibco) supplemented with 2 mM L-glutamine (Sigma), 100 U/mL penicillin (Sigma), and 100 μg/mL streptomycin (Sigma), and 10% FBS (Gibco) at 37 °C and under 5% CO2. Next, LDH assays were performed according to manufacturer instructions (Thermo Fisher Scientific, Massachusetts, USA). By using a CyQUANT LDH Cytotoxicity Assay Kit. Firstly, the cells were seeded in 96-well microtiter plates at 10^5 cells/mL (100 μL/well) and allowed to attach overnight. […] Lysis buffer (10 μL, Thermo Fisher Scientific) was then added to the maximal LDH activity control wells and incubated additional 45 minutes. The cell culture supernatant (50 μL) was then transferred to a new 96-well plate and mixed with 50 μL of the reaction mixture. After 30 minutes on room temperature, reactions were stopped with 50 μL of the Stop solution. Absorbance (490 nm and 680 nm) was measured with the automatic microplate reader Synergy 4 Hybrid Microplate Reader (BioTek, VT, USA). All experiments were performed in triplicates and repeated 3 times. Statistical significance (P < 0.05) was calculated with 2-tailed Welch’s t-test between treated groups and DMSO. The percentage of cytotoxicity was determined according to the following equation: %Cytotoxicity=(CompoundtreatedLDHactivity-SpontaneousLDHactivity/MaximumLDHactivity-SpontaneousLDHactivity)*100

[21] = system: MCF-7 cells; conditions: LDH assay
Description: as §2

Work on Cc1[nH]c(C(=O)Nc2nc3ccc(C(=O)O)cc3s2)c(Cl)c1Cl [ULD1] yielded an MIC ([1]; CCUG57598, Neisseria gonorrhoeae CCUG 57598) of at most 0.0312 µg/mL, an MIC ([1]; Neisseria gonorrhoeae ATCC 700825) of under 0.0312 µg/mL and an MIC ([1]; Neisseria gonorrhoeae CCUG 57598) of under 0.0312 µg/mL. It also gave an MIC ([2]; ATCC19606, Acinetobacter baumannii ATCC 19606) of 2 µg/mL, an MIC ([2]; Acinetobacter baumannii ATCC 17978) of 4 µg/mL and an MIC ([2]; Acinetobacter baumannii ATCC 19606) of 2 µg/mL. The MIC ([3]; Enterococcus faecalis ATCC 29212) was 0.125 µg/mL, the MIC ([3]; Enterococcus faecalis ATCC 51575, VRE (VanB+)) was 0.0625 µg/mL and the MIC [4] was 4 µg/mL. It also gave an MIC ([5]; ATCC27853, Pseudomonas aeruginosa ATCC 27853) of 8 µg/mL, an MIC ([5]; Pseudomonas aeruginosa ATCC 27853) of 8 µg/mL and an MIC ([5]; Pseudomonas aeruginosa B3-1811, Ciprofloxacin-R, Cephalosporin-R) of over 64 µg/mL. For the same compound, the MIC [6] was 4 µg/mL, the MIC ([7]; Streptococcus pneumoniae ATCC 49619) was 0.25 µg/mL and the MIC ([7]; Streptococcus pneumoniae ATCC 51916) was 0.5 µg/mL. The MIC ([7]; Streptococcus pneumoniae ATCC 700673) was 0.5 µg/mL, the MIC ([8]; Clostridioides difficile, BAA1875) was at most 0.0312 µg/mL and the MIC ([8]; Clostridium difficile BAA-1875) was under 0.0312 µg/mL. The MIC ([9]; ATCC49247, Haemophilus influenzae ATCC 49247) was at most 0.0312 µg/mL, the MIC ([9]; Haemophilus influenzae ATCC 35056) was 0.125 µg/mL and the MIC ([9]; Haemophilus influenzae ATCC 49247) was under 0.0312 µg/mL. It also gave an MIC ([10]; Enterococcus faecium ATCC 19434) of 2 µg/mL, an MIC ([10]; Enterococcus faecium ATCC 700221, VRE (VanA+)) of 0.0625 µg/mL and an MIC ([10]; Enterococcus faecium BAA-2320, VRE (VanA+)) of 0.25 µg/mL. For the same compound, the MIC ([10]; Enterococcus faecium CCUG 56858, VRE (VanB+)) was 2 µg/mL, the MIC ([11]; ATCC10031) was 1 µg/mL and the MIC [11] was 1 µg/mL. It also gave an MIC ([12]; Staphylococcus aureus (strain not given), MRSA (SCCmec type IV), Oxacillin-R, VSSA, Cephalosporin-R, Erythromycin-R) of 1 µg/mL, an MIC ([12]; Staphylococcus aureus ATCC 29213) of 1 µg/mL and an MIC ([12]; Staphylococcus aureus ATCC 33594, MSSA, VSSA) of 0.5 µg/mL. It also gave an MIC ([12]; Staphylococcus aureus ATCC 43300, MRSA) of 0.125 µg/mL, an MIC ([12]; Staphylococcus aureus ATCC 700699 (Mu50, NRS1), MRSA, VISA) of 0.0625 µg/mL and an MIC ([12]; Staphylococcus aureus CDC AR-BANK 0218, MRSA, VISA) of 1 µg/mL. For the same compound, the MIC ([12]; Staphylococcus aureus ECL 2963646, MRSA, VRSA) was 0.125 µg/mL, the MIC ([12]; Staphylococcus aureus NRS271, MRSA, Linezolid-R) was 1 µg/mL and the MIC ([12]; Staphylococcus aureus USA300, ATCC BAA-1717, MRSA) was 0.5 µg/mL. It also gave an MIC ([12]; Staphylococcus aureus USA400, BAA-1707, NRS123, MRSA) of 0.5 µg/mL, an MIC ([12]; Staphylococcus aureus, ATCC 700699 / MRSA / NRS 1 / VISA, S. aureus ATCC 700699 (Mu50, NRS1), MRSA, VISA) of 0.0625 µg/mL and an MIC ([12]; Staphylococcus aureus, S. aureus ECL 2963646, MRSA, VRSA) of 0.125 µg/mL. It also gave an MIC ([13]; Streptococcus pyogenes ATCC 14289) of 0.25 µg/mL, an MIC ([13]; Streptococcus pyogenes ATCC 19615) of 0.125 µg/mL and an MIC ([14]; Shigella flexneri 668) of 16 µg/mL. For the same compound, the MIC ([14]; Shigella flexneri HNCMB 20018) was 8 µg/mL, the MIC ([15]; ATCC19111) was 0.125 µg/mL and the MIC [15] was 0.125 µg/mL. The “mutant prevention concentration (MPC)” value ([16]; S. aureus ATCC 700699 (VISA), estimate) was 0.16 µg/mL, the “Spontaneous frequency-of-resistance (replicates)” value ([16]; Staphylococcus aureus (MRSA) ATCC 43300, 2xMIC) was 2e-9 and 2.769e-9 and 5.333e-10 and 1.1e-9 and 1.263e-9 and 2.587e-9 and 2.787e-9 and 2.50E-09 and 3.14E-09 and 4.80E-09 and the “Spontaneous frequency-of-resistance (replicates)” value ([16]; Staphylococcus aureus (MRSA) ATCC 43300, 4xMIC) was 9.286e-10 and 7.692e-10 and 1.333e-10 and 5e-10 and 9.868e-10 and 1.045e-9 and 7.377e-10 and 1.30E-09 and 9.54E-10 and 1.09E-08 and 7.14E-11. The “Spontaneous frequency-of-resistance (replicates)” value ([16]; Staphylococcus aureus (MRSA) ATCC 43300, 8xMIC) was 1.00E-12, the “Spontaneous frequency-of-resistance (replicates)” value ([16]; Staphylococcus aureus (VISA) ATCC 700699, 2xMIC) was 2.06e-9 and 1.815e-9 and 2.326e-9 and 1.86e-9 and 1.40E-09 and 7.33E-10 and 2.00E-09 and 1.64E-09 and 3.594e-9 and 2.426e-9 and the “Spontaneous frequency-of-resistance (replicates)” value ([16]; Staphylococcus aureus (VISA) ATCC 700699, 4xMIC) was 1.00E-12 and 3.109e-10 and 2.252e-10 and 3.243e-10 and 3.9801e-10 and 2.304e-10 and 2.871e-10 and 1.676e-10. For the same compound, the “Spontaneous frequency-of-resistance (replicates)” value ([16]; Staphylococcus aureus (VISA) ATCC 700699, 8xMIC) was 1.00E-12, the resistant variants detected ([16]; exposure at 8-fold the wild-type MIC, S. aureus, in words) was “no resistant variants of S. aureus have been detected” and the “decrease in susceptibility compared with wild-type strain” value ([17]; 9 independently evolved novobiocin-resistant isolates) was “up to 6 fold”. It also gave an MIC ([17]; WT S. aureus VISA ATCC 700699, read-out: MIC) of 0.04 µg/mL, an MIC ([17]; novobiocin-adapted Evolved 1) of 0.016 µg/mL and an MIC ([17]; novobiocin-adapted Evolved 2) of 0.125 µg/mL. It also gave an MIC ([17]; novobiocin-adapted Evolved 3) of 0.016 µg/mL, an MIC ([17]; novobiocin-adapted Evolved 4) of 0.25 µg/mL and an MIC ([17]; novobiocin-adapted Evolved 5) of 0.063 µg/mL. It also gave an MIC ([17]; novobiocin-adapted Evolved 6) of 0.063 µg/mL, an MIC ([17]; novobiocin-adapted Evolved 7) of 0.125 µg/mL and an MIC ([17]; novobiocin-adapted Evolved 8) of 0.125 µg/mL. For the same compound, the MIC ([17]; novobiocin-adapted Evolved 9) was 0.016 µg/mL, the LDH activity ([18]; human red blood cells, 100 µg/mL) was 40 Unit/mL and the “hemolytic activity on human red blood cells” value ([18]; in words) was “no biocompatibility concerns”. For the same compound, the MIC [19] was under 2 µg/mL, the IC50 [20] was over 100 µM and the “Max. % inhibition at 100 µM” value [21] was “Max. % inhibition at 100 µM: 0%”.
